{
  "source": "patent US20180311268A1",
  "about": "“RESPONSE-GUIDED HCV THERAPY” (EMORY UNIVERSITY, priority 2015, published 2018)",
  "key": {"[1]": {"tested_on": "HCV genotype 1", "details": "added to sofosbuvir and ledipasvir, 6 week triple-drug regimens; cited from earlier work"}, "[2]": {"assay": "Plasma concentrations of anti-HCV drugs by LC-MS/MS", "format": "in vivo, human", "experimental": "Plasma samples from patients infected with HCV were stored in aliquots at −80° C. until further processing. Viral RNA was extracted and the genome sequenced using an Applied Biosystems 3730×1 DNA analyser as previously described.^21 Data were analysed with the ABL-DeepChek-HCV 1.4 software (ABL SA, Luxembourg, Luxembourg). To confirm compliance, a liquid chromatography-tandem mass spectrometry (LC-MS/MS) method was developed to detect and quantify the anti-HCV drug concentrations in plasma collected from each patient. Briefly, blood samples were collected from 25 patients at 8 h, 24 h, and 48 h after initiating treatment. 50 μL of plasma was extracted with 3 mL of ethyl acetate containing abacavir (as an internal standard). The supernatant was collected, air dried, then reconstituted in 2 mmol/L ammonium acetate solution with 75% methanol. Five target compounds were simultaneously monitored and quantified by LC-MS/MS in the multiple reaction monitoring mode, including sofosbuvir (m/z 530.2/243.2), daclatasvir (m/z 739.5/339.3), ledipasvir (m/z 889.4/637.3), asunaprevir (m/z 748.4/648.4), and simeprevir (m/z 750.4/315.2). A Dionex Ultimate 3000 HPLC system (Thermo Scientific, Waltham, Mass., USA) coupled with an AB SCIEX API5000 triple quadrupole mass spectrometer (AB SCIEX, Framingham, Mass., USA) was used for analysis.\nFifty μL plasma was extracted with 3 mL of ethyl acetate containing abacavir (as internal standard). The supernatant was collected, air-dried then reconstituted in 2 mM ammonium acetate solution with 75% methanol. Five target compounds were simultaneously monitored and quantified by LC-MS/MS in the multiple reaction monitoring (MRM) mode, including sofosbuvir (m/z 530.2à243.2), daclatasvir (m/z 739.5à339.3), ledipasvir (m/z 889.4à637.3), asunaprevir (m/z 748.4à648.4) and simeprevir (m/z 750.4à315.2). SOF concentrations were measured with a wide range from BLOQ to 3,174 ng/mL; LDV and DCV were in the range of BLOQ to 469 ng/mL and 101 to 3045 ng/mL; ASV and SMV were in the range of BLOQ to 626 ng/mL and 30.6 to 693 ng/mL, respectively."}},
  "note": "“And” between values parts separate entries of the source, which are not always exact repeats. Equal entries are not always repeated.",
  "data": [
    {"smiles": "CC[C@@H]1C[C@]1(NC(=O)[C@@H]1C[C@@H](Oc2cc(-c3csc(NC(C)C)n3)nc3c(Cl)c(OCCN4CCOCC4)ccc23)CN1C(=O)[C@@H](NC(=O)O[C@@H]1C[C@@H]2C[C@@H]2C1)C(C)(C)C)C(=O)O", "note": "[GS-9451]", "values": [
      {"measurement": "Patients with SVR12", "setting": "[1]", "value": 95, "unit": "%"}
    ]},
    {"smiles": "CC1=CC[C@H](C(=O)N(c2cc(C#CC(C)(C)C)sc2C(=O)O)[C@H]2CC[C@](O)(CO[C@H]3CCOC3)CC2)CC1", "note": "[GS-9669]", "values": [
      {"measurement": "Patients with SVR12", "setting": "[1]", "value": 95, "unit": "%"}
    ]},
    {"smiles": "CC(C)OC(=O)[C@H](C)N[P@](=O)(OC[C@H]1O[C@@H](n2ccc(=O)[nH]c2=O)[C@](C)(F)[C@@H]1O)Oc1ccccc1", "note": "[SOF, Sofosbuvir]", "values": [
      {"measurement": "Range of measured plasma concentrations", "setting": "[2]; all subjects, 8, 24 and 48 hr after first treatment, BLOQ = below LOQ", "value": "≤ 3,174 ng/mL"},
      {"measurement": "concentration at 8 h", "setting": "[2]; human, in vivo, individual subjects on SOF + DCV + ASV Then SOF + LDV, >3 weeks treatment, 8 h", "value": 9.99, "unit": "ng/mL"},
      {"measurement": "concentration at 24 h", "setting": "[2]; human, in vivo, individual subjects on SOF + DCV + ASV Then SOF + LDV, >3 weeks treatment, 24 h", "value": 11.2, "unit": "ng/mL"},
      {"measurement": "concentration at 48 h", "setting": "[2]; human, in vivo, individual subjects on SOF + DCV + ASV Then SOF + LDV, >3 weeks treatment, 48 h", "value": 631, "unit": "ng/mL"},
      {"measurement": "concentration at 24 h", "setting": "[2]; human, in vivo, individual subjects on SOF + DCV + SMV, 3 weeks treatment, 24 h", "value": 2410, "unit": "ng/mL"},
      {"measurement": "concentration at 8 h", "setting": "[2]; human, in vivo, individual subjects on SOF + LDV + ASV Then SOF + LDV, >3 weeks treatment, 8 h", "value": 0.67, "unit": "ng/mL"},
      {"measurement": "Plasma concentration", "setting": "[2]; individual subjects on SOF + DCV + ASV, 3 weeks treatment, 8 h", "value": "0.55 ng/mL and 0.28 ng/mL and 2.03 ng/mL and 13.5 ng/mL and 0.47 ng/mL"},
      {"measurement": "Plasma concentration", "setting": "[2]; individual subjects on SOF + DCV + ASV, 3 weeks treatment, 24 h", "value": "1.09 ng/mL and 0.28 ng/mL and 0.27 ng/mL and 192 ng/mL and 256 ng/mL"},
      {"measurement": "Plasma concentration", "setting": "[2]; individual subjects on SOF + DCV + ASV, 3 weeks treatment, 48 h", "value": "1.41 ng/mL and 0.80 ng/mL and 7.55 ng/mL and 292 ng/mL and 12.7 ng/mL and 1807 ng/mL"},
      {"measurement": "Plasma concentration", "setting": "[2]; individual subjects on SOF + DCV + SMV, 3 weeks treatment, 8 h", "value": "2.35 ng/mL and 0.26 ng/mL and 14.7 ng/mL and 0.42 ng/mL and 1.45 ng/mL"},
      {"measurement": "Plasma concentration", "setting": "[2]; individual subjects on SOF + DCV + SMV, 3 weeks treatment, 24 h", "value": "2114 ng/mL and 1923 ng/mL"},
      {"measurement": "Plasma concentration", "setting": "[2]; individual subjects on SOF + DCV + SMV, 3 weeks treatment, 48 h", "value": "3174 ng/mL and 1796 ng/mL and 1549 ng/mL and 1227 ng/mL"},
      {"measurement": "Plasma concentration", "setting": "[2]; individual subjects on SOF + LDV + ASV Then SOF + LDV, >3 weeks treatment, 8 h", "value": 0.58, "unit": "ng/mL"},
      {"measurement": "Plasma concentration", "setting": "[2]; individual subjects on SOF + LDV + ASV Then SOF + LDV, >3 weeks treatment, 24 h", "value": "202 ng/mL and 1591 ng/mL and 0.61 ng/mL"},
      {"measurement": "Plasma concentration", "setting": "[2]; individual subjects on SOF + LDV + ASV, 3 weeks treatment, 8 h after initiating treatment", "value": "7.17 ng/mL and 5.52 ng/mL and 4.22 ng/mL and 18.2 ng/mL and 4.54 ng/mL and 10.4 ng/mL"},
      {"measurement": "Plasma concentration", "setting": "[2]; individual subjects on SOF + LDV + ASV, 3 weeks treatment, 24 h", "value": "0.94 ng/mL and 8.92 ng/mL and 1.23 ng/mL and 2.13 ng/mL and 1.17 ng/mL and 0.99 ng/mL"},
      {"measurement": "Plasma concentration", "setting": "[2]; individual subjects on SOF + LDV + ASV, 3 weeks treatment, 48 h", "value": "4.76 ng/mL and 6.35 ng/mL and 0.64 ng/mL and 1.59 ng/mL and 0.92 ng/mL and 0.81 ng/mL"}
    ]}
  ]
}
